Measurements taken from PubChem BioAssay (NCI).
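Exposure lasted 48 hours, with cells grown in 96-well plates and compounds tested at five concentrations. At the GI50, growth is halved. TGI is the concentration that stops growth completely.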

Columns and labels:
Experiment in all cases: DTP human tumour cell line panel, 48 h
OVCAR-4 ovarian = test system: OVCAR-4 ovarian
HCT-116 colon = test system: HCT-116 colon
T-47D breast = test system: T-47D breast
IGROV1 ovarian = test system: IGROV1 ovarian
MOLT-4 leukemia = test system: MOLT-4 leukemia
HT29 colon = test system: HT29 colon
MDA-MB-231 breast = test system: MDA-MB-231 breast
SK-MEL-2 melanoma = test system: SK-MEL-2 melanoma
EKVX NSCLC = test system: EKVX NSCLC
NCI/ADR-RES ovarian = test system: NCI/ADR-RES ovarian
MDA-MB-435 = test system: MDA-MB-435
SN12C renal = test system: SN12C renal
SK-OV-3 ovarian = test system: SK-OV-3 ovarian
SNB-75 CNS = test system: SNB-75 CNS
SR leukemia = test system: SR leukemia
786-0 renal = test system: 786-0 renal
SK-MEL-28 melanoma = test system: SK-MEL-28 melanoma
MCF7 breast = test system: MCF7 breast
TK-10 renal = test system: TK-10 renal

SMILES	TGI (OVCAR-4 ovarian) [µM]	TGI (HCT-116 colon) [µM]	TGI (T-47D breast) [µM]	TGI (IGROV1 ovarian) [µM]	TGI (MOLT-4 leukemia) [µM]	TGI (HT29 colon) [µM]	TGI (MDA-MB-231 breast) [µM]	TGI (SK-MEL-2 melanoma) [µM]	TGI (EKVX NSCLC) [µM]	TGI (NCI/ADR-RES ovarian) [µM]	TGI (MDA-MB-435) [µM]	TGI (SN12C renal) [µM]	TGI (SK-OV-3 ovarian) [µM]	TGI (SNB-75 CNS) [µM]	TGI (SR leukemia) [µM]	TGI (786-0 renal) [µM]	TGI (SK-MEL-28 melanoma) [µM]	TGI (MCF7 breast) [µM]	TGI (TK-10 renal) [µM]	GI50 (HCT-116 colon) [µM]
O=C1CSC(c2ccc(Cl)cc2)N1c1ccc(-c2ccc(-n3c(-c4ccccc4)nc4ccccc4c3=O)cc2)cc1 (stereo not given)	56.8	> 100	52.1	> 100	83.6	41.5	> 100	> 100	> 100	82.5	71.3	> 100	> 100	26.6	> 100	> 100	> 100	> 100	> 100	–
CC#Cc1cc2c(cc1O)CC[C@@H]1[C@@H]2CC[C@]2(C)[C@@H](O)CC[C@@H]12	62	17.3	> 89.6	38.1	17.2	30.5	46.2	15.1	26	10.3	0.814	22.8	> 62.2	27.6	25.7	35.1	23.7	64.3	> 91.3	0.48
CC(C)[Si](OC1=C(C(=O)N(C)c2ccccc2Cl)CCCC1)(C(C)C)C(C)C	28.9	–	10.5	31.4	43	32.3	31.3	29.3	28	29.6	31.2	–	28.5	27.5	24.1	34.6	37.4	27.2	29.5	–
CC(C)(C)CC(C)(C)N=C(N)NO	> 100	> 100	> 100	> 100	> 100	> 100	> 100	> 100	> 100	> 100	> 100	> 100	99.1	> 100	> 100	> 100	> 100	> 100	> 100	–
COC(=O)[C@@H]1C2OC(C)(C)OC2CN1C(=O)OCc1ccccc1 (stereo not given in full)	> 100	> 100	> 100	> 100	> 100	> 100	> 100	> 100	> 100	> 100	> 100	> 100	> 100	> 100	> 100	> 100	> 100	> 100	> 100	–
COc1ccc(CC2c3cc(OC)c(OC)c(OC)c3CC[N+]2(C)C)cc1Oc1ccc(CC2c3cc4c(c(OC)c3CCN2C)OCO4)cc1 (stereo not given)	> 100	> 100	> 100	> 100	> 100	> 100	> 100	> 100	> 100	> 100	> 100	> 100	> 100	> 100	> 100	> 100	> 100	> 100	> 100	–
CCCNC(C#N)c1ccc(OCCCCCCCCCCOc2ccc(C(C#N)NCCC)cc2)cc1 (stereo not given)	> 100	> 100	> 100	> 100	39.8	> 100	> 100	> 100	> 100	> 100	> 100	> 100	> 100	> 100	61.3	> 100	> 100	> 100	69.2	–
COC(=O)[C@]12CCC(C)(C)C[C@H]1C1=CC[C@@H]3[C@@]4(C)CC[C@H](OC5OC(CO)C(O)C(O)C5OC5OC(CO)C(O)C(O)C5O)C(C)(C)[C@@H]4CC[C@@]3(C)[C@]1(C)CC2 (stereo not given in full)	15.6	18.7	36.3	28.7	40.8	22.1	7.2	23.9	26	29.1	20.8	15.9	36.1	26.4	26.8	23.8	12.3	24.4	–	–
O=C(NCCNCCNCCNC(=O)c1cc(-c2ccccc2)nc2ccccc12)c1cc(-c2ccccc2)nc2ccccc12	13.8	3.39	7.66	7.52	4.22	3.14	7.57	3.08	18	29.3	3.23	11.2	11.1	3.44	5.01	3.08	3.08	3.79	11.4	–
COc1ccc(N2C(=O)c3cccnc3S2(=O)=O)cc1	> 100	> 100	> 100	> 100	> 100	> 100	> 100	> 100	> 100	> 100	> 100	> 100	> 100	> 100	> 100	> 100	> 100	> 100	–	–
COc1cc(Br)cc2nc(-c3cccs3)oc12	> 100	> 100	> 100	> 100	> 100	> 100	> 100	> 100	> 100	> 100	> 100	> 100	> 100	> 85.9	> 100	> 100	> 100	> 100	> 77.6	–
CCO/C=N/C1=C(C#N)C(c2ccc(Cl)cc2)c2c(-c3ccccc3)nn(-c3ccccc3)c2O1 (stereo not given)	> 64.8	> 47.9	> 100	45.2	> 100	64.9	> 67	34.8	> 31.6	> 85.4	35.8	> 100	48.2	29.1	> 100	32.2	39.5	25	14.2	–
